In ChEMBL document CHEMBL1909046, “DrugMatrix in vitro pharmacology data”:

Assays:
Cannabinoid receptor 1 = Cannabinoid receptor 1 (Homo sapiens, UniProt P21554); assay type: cell membranes, Chem-1, Membrane; settings: chem-1; note: in other assays of this panel Not Active means under 50% inhibition at 10 µM
Progesterone receptor = target: T1, Progesterone receptor (Bos taurus, UniProt Q690N0); assay: DRUGMATRIX: Progesterone radioligand binding (ligand: [3H] R-5020); assay type: tissue-based, Uterus; settings: Not Active = under 50% inhibition at 10 µM
T1 sequence (Q690N0 whole entry): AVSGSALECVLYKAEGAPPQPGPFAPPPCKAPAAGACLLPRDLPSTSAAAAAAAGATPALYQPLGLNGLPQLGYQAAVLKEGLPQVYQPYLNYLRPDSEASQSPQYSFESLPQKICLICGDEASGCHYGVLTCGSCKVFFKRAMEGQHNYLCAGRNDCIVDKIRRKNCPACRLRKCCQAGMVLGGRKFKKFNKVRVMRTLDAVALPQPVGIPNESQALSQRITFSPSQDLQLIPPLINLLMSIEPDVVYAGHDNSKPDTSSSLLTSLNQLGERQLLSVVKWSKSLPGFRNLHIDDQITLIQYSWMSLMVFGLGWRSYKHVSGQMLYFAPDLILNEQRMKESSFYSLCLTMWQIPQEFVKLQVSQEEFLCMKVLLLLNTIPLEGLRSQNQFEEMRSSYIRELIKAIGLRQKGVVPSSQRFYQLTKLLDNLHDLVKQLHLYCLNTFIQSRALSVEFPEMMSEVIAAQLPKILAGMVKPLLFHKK

[1] = target: cGMP-specific 3',5'-cyclic phosphodiesterase (Homo sapiens, UniProt O76074); assay: DRUGMATRIX: Phosphodiesterase PDE5 enzyme inhibition (substrate: [3H]cGMP + cGMP); assay type: tissue-based; settings: platelet; Not Active = under 50% inhibition at 10 µM
[2] = target: T2, Muscarinic acetylcholine receptor M2 (Homo sapiens, UniProt P08172); assay type: cell membranes, CHO-K1, Membrane; settings: cho-k1; note: in other assays of this panel Not Active means under 50% inhibition at 10 µM
T2 sequence (P08172 whole entry): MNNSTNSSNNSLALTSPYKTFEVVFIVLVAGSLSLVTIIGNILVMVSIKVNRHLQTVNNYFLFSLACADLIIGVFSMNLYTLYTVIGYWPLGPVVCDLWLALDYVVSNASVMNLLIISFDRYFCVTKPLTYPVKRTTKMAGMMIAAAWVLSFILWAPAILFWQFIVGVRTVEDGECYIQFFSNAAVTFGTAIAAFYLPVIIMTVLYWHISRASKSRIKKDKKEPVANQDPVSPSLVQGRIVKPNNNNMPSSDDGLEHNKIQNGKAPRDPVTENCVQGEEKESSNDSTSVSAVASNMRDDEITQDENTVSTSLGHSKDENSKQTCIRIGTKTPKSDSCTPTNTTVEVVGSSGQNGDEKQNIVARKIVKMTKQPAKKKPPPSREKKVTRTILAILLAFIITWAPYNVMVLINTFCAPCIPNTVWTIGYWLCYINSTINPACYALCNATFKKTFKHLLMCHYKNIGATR

Substance-K receptor = target: T3, Substance-K receptor (Homo sapiens, UniProt P21452); assay type: cell membranes, CHO, Membrane; note: in other assays of this panel Not Active means under 50% inhibition at 10 µM
T3 sequence (P21452 whole entry): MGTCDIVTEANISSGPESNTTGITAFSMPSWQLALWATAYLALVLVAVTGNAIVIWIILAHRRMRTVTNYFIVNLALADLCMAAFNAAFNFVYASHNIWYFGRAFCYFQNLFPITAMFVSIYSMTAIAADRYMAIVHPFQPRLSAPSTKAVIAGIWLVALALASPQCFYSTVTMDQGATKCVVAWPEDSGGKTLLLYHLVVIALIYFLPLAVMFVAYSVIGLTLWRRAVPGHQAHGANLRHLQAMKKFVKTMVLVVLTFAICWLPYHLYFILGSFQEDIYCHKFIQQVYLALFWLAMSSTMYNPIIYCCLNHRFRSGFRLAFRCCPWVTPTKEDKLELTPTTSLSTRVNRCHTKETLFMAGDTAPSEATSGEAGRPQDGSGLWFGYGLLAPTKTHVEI

Melanocortin receptor 3 = Melanocortin receptor 3 (Homo sapiens, UniProt P41968); assay type: cell membranes, Membrane; settings: hek293; note: in other assays of this panel Not Active means under 50% inhibition at 10 µM
Sequence of Melanocortin receptor 3 (P41968 whole entry): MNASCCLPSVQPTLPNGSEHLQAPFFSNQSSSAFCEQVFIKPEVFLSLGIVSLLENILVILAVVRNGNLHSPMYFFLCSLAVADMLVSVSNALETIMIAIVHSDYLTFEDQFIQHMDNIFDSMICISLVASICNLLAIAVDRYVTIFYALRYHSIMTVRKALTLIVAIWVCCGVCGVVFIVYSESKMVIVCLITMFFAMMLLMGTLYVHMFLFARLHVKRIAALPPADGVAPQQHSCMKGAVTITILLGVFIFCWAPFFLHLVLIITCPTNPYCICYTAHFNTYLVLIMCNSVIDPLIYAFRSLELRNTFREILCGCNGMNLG

Sequence of Cannabinoid receptor 1 (P21554 whole entry): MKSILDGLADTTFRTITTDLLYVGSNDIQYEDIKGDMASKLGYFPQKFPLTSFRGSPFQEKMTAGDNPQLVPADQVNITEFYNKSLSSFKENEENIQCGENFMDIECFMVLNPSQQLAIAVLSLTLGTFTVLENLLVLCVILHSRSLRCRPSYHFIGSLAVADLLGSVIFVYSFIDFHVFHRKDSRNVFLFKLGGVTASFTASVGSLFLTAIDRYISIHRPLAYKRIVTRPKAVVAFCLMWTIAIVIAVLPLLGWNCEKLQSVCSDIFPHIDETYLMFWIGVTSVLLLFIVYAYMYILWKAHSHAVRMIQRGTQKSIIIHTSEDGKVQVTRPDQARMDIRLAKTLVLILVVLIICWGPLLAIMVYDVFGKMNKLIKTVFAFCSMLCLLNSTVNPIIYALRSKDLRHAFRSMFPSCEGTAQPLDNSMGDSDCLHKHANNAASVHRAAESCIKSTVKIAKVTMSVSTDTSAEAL

`Cc1cc2cc3c(C)cc(=O)oc3c(C)c2o1` [TRIOXSALEN] was tested, and the IC50 (Cannabinoid receptor 1) was “Not Active”, the IC50 (Progesterone receptor) was “Not Active” and the IC50 [1] was “Not Active”. For the same molecule, the IC50 [2] was “Not Active”, the IC50 (Substance-K receptor; cho) was “Not Active” and the IC50 (Melanocortin receptor 3) was “Not Active”.

With `CCCC(CCC)C(=O)O` [VALPROIC ACID] the IC50 (Cannabinoid receptor 1) was “Not Active”, the IC50 (Progesterone receptor) was “Not Active” and the IC50 [1] was “Not Active”. The IC50 [2] was “Not Active”, the IC50 (Substance-K receptor; cho) was “Not Active” and the IC50 (Melanocortin receptor 3) was “Not Active”.

For `CCC1=C[C@@H]2CN(C1)Cc1c([nH]c3ccccc13)[C@@](C(=O)OC)(c1cc3c(cc1OC)N(C)[C@H]1[C@@](O)(C(=O)OC)[C@H](OC(C)=O)[C@]4(CC)C=CCN5CC[C@]31[C@@H]54)C2` [VINORELBINE], the IC50 (Cannabinoid receptor 1) was “Not Active”, the IC50 (Progesterone receptor) was “Not Active” and the IC50 [1] was “Not Active”. The IC50 [2] was “Not Active”, the IC50 (Substance-K receptor; read-out: IC50) was 1.61 µM and the Ki (Substance-K receptor; read-out: Ki) was 0.536 µM. For the same molecule, the IC50 (Melanocortin receptor 3) was “Not Active”.

With CADMIUM DICHLORIDE the IC50 (Cannabinoid receptor 1) was “Not Active”, the Ki (Cannabinoid receptor 1) was “Not Active” and the IC50 (Progesterone receptor) was “Not Active”. For the same molecule, the Ki (Progesterone receptor) was “Not Active”, the IC50 [1] was “Not Active” and the Ki [1] was “Not Active”. For the same molecule, the IC50 [2] was “Not Active”, the Ki [2] was “Not Active” and the IC50 (Substance-K receptor; cho) was “Not Active”. The Ki (Substance-K receptor; cho) was “Not Active”, the IC50 (Melanocortin receptor 3) was “Not Active” and the Ki (Melanocortin receptor 3) was “Not Active”.
